Ten compounds from ChEMBL document CHEMBL1629609, “Phenotypic and enzymatic comparative analysis of the novel KPC variant KPC-5 and its evolutionary variants, KPC-2 and KPC-4” (Antimicrob Agents Chemother, 2009) can be followed below.

SMILES strings stand for the structures. Values after ≈ are worked out from the molar mass of the structure shown. Bounds are passed on as bounds.

Data set [1] relates to Enterobacter cancerogenus. The experiment in a line: Antibacterial activity against Enterobacter cancerogenus E624 harboring beta-lactamase KPC-4 by agar dilution method. It counts as functional.
The subject of data set [2] is Escherichia coli. Kind of data set: Antibacterial activity against Escherichia coli TOP10 by agar dilution method. The format is functional.
The subject of data set [3] is Escherichia coli. Kind of data set: Antibacterial activity against Escherichia coli TOP10 harboring beta-lactamase KPC-5 by agar dilution method. The format is functional.
The test system of data set [4] is Escherichia coli. Kind of data set: Antibacterial activity against Escherichia coli TOP10 harboring beta-lactamase KPC-2 by agar dilution method. It counts as functional.
Data set [5] concerns Escherichia coli. Kind of data set: Antibacterial activity against Escherichia coli TOP10 harboring beta-lactamase KPC-4 by agar dilution method. The format is functional.
Data set [6] deals with Escherichia coli. Kind of data set: Metabolic stability in Escherichia coli TOP10 harboring beta-lactamase KPC-2 assessed as hydrolysis rate per mg of extracts at 50 uM after 5 mins by spectrophotometric analysis. It counts as ADME, organism-based. As to conditions: in vivo.
Data set [7] concerns Pseudomonas aeruginosa. The experiment in a line: Antibacterial activity against Pseudomonas aeruginosa PR280 harboring beta-lactamase KPC-5 by agar dilution method. It counts as functional.
In data set [8] the test system is Escherichia coli. The experiment in a line: Metabolic stability in Escherichia coli TOP10 harboring beta-lactamase KPC-5 assessed as hydrolysis rate per mg of extracts at 50 uM after 5 mins by spectrophotometric analysis. The format is ADME, organism-based. Conditions: in vivo.
Data set [9] has as its system Escherichia coli. The experiment in a line: Metabolic stability in Escherichia coli TOP10 harboring beta-lactamase KPC-4 assessed as hydrolysis rate per mg of extracts at 50 uM after 5 mins by spectrophotometric analysis. The format is ADME, organism-based. Conditions: in vivo.
Data set [10] has as its system Pseudomonas aeruginosa. The experiment in a line: Antibacterial activity against Pseudomonas aeruginosa PR100 harboring beta-lactamase KPC-2 by agar dilution method. It counts as functional.
The test system of data set [11] is Escherichia coli. Kind of data set: Ratio of MIC for Escherichia coli TOP10 harboring beta-lactamase KPC-2 to MIC for Escherichia coli TOP10 harboring beta-lactamase KPC-4. It counts as functional.
For data set [12], the system named is Escherichia coli. Kind of data set: Metabolic stability in Escherichia coli TOP10 harboring beta-lactamase KPC-2 assessed as hydrolysis rate per mg of extracts at 100 uM after 5 mins by spectrophotometric analysis in presence of clavulanic acid. As to conditions: in vivo. It counts as ADME, organism-based.
For data set [13], the system named is Escherichia coli. Kind of data set: Metabolic stability in Escherichia coli TOP10 harboring beta-lactamase KPC-5 assessed as hydrolysis rate per mg of extracts at 100 uM after 5 mins by spectrophotometric analysis. It counts as ADME, organism-based. Conditions: in vivo.
For data set [14], the system named is Escherichia coli. Kind of data set: Metabolic stability in Escherichia coli TOP10 harboring beta-lactamase KPC-4 assessed as hydrolysis rate per mg of extracts at 100 uM after 5 mins by spectrophotometric analysis. The format is ADME, organism-based. Conditions: in vivo.
For data set [15], the system named is Escherichia coli. Kind of data set: Metabolic stability in Escherichia coli TOP10 harboring beta-lactamase KPC-2 assessed as hydrolysis rate per mg of extracts at 100 uM after 5 mins by spectrophotometric analysis. The format is ADME, organism-based. As to conditions: in vivo.
In data set [16] the test system is Escherichia coli. Kind of data set: Metabolic stability in Escherichia coli TOP10 harboring beta-lactamase KPC-5 assessed as hydrolysis rate per mg of extracts at 100 uM after 5 mins by spectrophotometric analysis in presence of clavulanic acid. It counts as ADME, organism-based. Conditions: in vivo.
For data set [17], the system named is Escherichia coli. The experiment in a line: Metabolic stability in Escherichia coli TOP10 harboring beta-lactamase KPC-4 assessed as hydrolysis rate per mg of extracts at 100 uM after 5 mins by spectrophotometric analysis in presence of clavulanic acid. The format is ADME, organism-based. Conditions: in vivo.
The test system of data set [18] is Escherichia coli. The experiment in a line: Antibacterial activity against Escherichia coli TOP10 harboring beta-lactamase KPC-4 by agar dilution method in presence of clavulanic acid. It counts as functional.
Data set [19] deals with Escherichia coli. Kind of data set: Antibacterial activity against Escherichia coli TOP10 harboring beta-lactamase KPC-2 by agar dilution method in presence of clavulanic acid. It counts as functional.
For data set [20], the system named is Escherichia coli. The experiment in a line: Antibacterial activity against Escherichia coli TOP10 harboring beta-lactamase KPC-5 by agar dilution method in presence of clavulanic acid.
For data set [21], the system named is Escherichia coli. Kind of data set: Antibacterial activity against Escherichia coli TOP10 by agar dilution method in presence of clavulanic acid.
Data set [22] relates to Escherichia coli. Kind of data set: Antibacterial activity against Escherichia coli TOP10 harboring beta-lactamase KPC-4 by agar dilution method in presence of Tazobactam. The format is functional.
In data set [23] the test system is Escherichia coli. Kind of data set: Antibacterial activity against Escherichia coli TOP10 by agar dilution method in presence of Tazobactam. It counts as functional.
Data set [24] relates to Enterobacter cancerogenus. The experiment in a line: Antibacterial activity against Enterobacter cancerogenus E624 harboring beta-lactamase KPC-4 by agar dilution method in presence of Tazobactam. It counts as functional.
For data set [25], the system named is Escherichia coli. Kind of data set: Antibacterial activity against Escherichia coli TOP10 harboring beta-lactamase KPC-2 by agar dilution method in presence of Tazobactam. The format is functional.
Data set [26] concerns Escherichia coli. Kind of data set: Antibacterial activity against Escherichia coli TOP10 harboring beta-lactamase KPC-5 by agar dilution method in presence of Tazobactam. It counts as functional.
The test system of data set [27] is Pseudomonas aeruginosa. Kind of data set: Antibacterial activity against Pseudomonas aeruginosa PR280 harboring beta-lactamase KPC-5 by agar dilution method in presence of Tazobactam. It counts as functional.
Data set [28] deals with Pseudomonas aeruginosa. Kind of data set: Antibacterial activity against Pseudomonas aeruginosa PR100 harboring beta-lactamase KPC-2 by agar dilution method in presence of Tazobactam. It counts as functional.
Data set [29] has as its system Escherichia coli. Kind of data set: Ratio of MIC for Escherichia coli TOP10 harboring beta-lactamase KPC-2 to MIC for Escherichia coli TOP10 harboring beta-lactamase KPC-5. It counts as functional.

Take `C[C@@H](O)[C@H]1C(=O)N2C(C(=O)O)=C(S[C@@H]3CN[C@H](C(=O)Nc4cccc(C(=O)O)c4)C3)[C@H](C)[C@H]12`: the MIC in data set [1] was above 16 µg/mL; in the data set on Escherichia coli [2], below 0.06 µg/mL; in the data set on Escherichia coli [3], 8 µg/mL (≈ 16.8 µM); against Escherichia coli [4], 16 µg/mL (≈ 33.6 µM); against Escherichia coli [5] it was 2 µg/mL (≈ 4.21 µM).
As to `C[C@H]1[C@H](NC(=O)/C(=N\OC(C)(C)C(=O)O)c2csc(N)n2)C(=O)N1S(=O)(=O)O` [AZTREONAM], the MIC is above 64 µg/mL in data set [1]; below 0.12 µg/mL against Escherichia coli [2]; above 128 µg/mL against Escherichia coli [3]; above 128 µg/mL with Escherichia coli [4]; above 128 µg/mL with Escherichia coli [5].
In the case of `CC(C)(O/N=C(\C(=O)N[C@@H]1C(=O)N2C(C(=O)[O-])=C(C[n+]3ccccc3)CS[C@H]12)c1csc(N)n1)C(=O)O` [CEFTAZIDIME], the Stability in the data set with Escherichia coli [6] is given as 3 nmol/min; with Escherichia coli [8], 6 nmol/min; in the data set with Escherichia coli [9] it was 7 nmol/min. The MIC in the data set on Pseudomonas aeruginosa [7] was 128 µg/mL (≈ 234 µM); in [1], above 64 µg/mL; against Escherichia coli [2], 0.12 µg/mL (≈ 0.22 µM); in the data set on Escherichia coli [3], 128 µg/mL (≈ 234 µM); in the data set on Pseudomonas aeruginosa [10], 64 µg/mL (≈ 117 µM); against Escherichia coli [4], 32 µg/mL (≈ 58.5 µM). The MIC against Escherichia coli [5] was above 128 µg/mL. The Ratio with Escherichia coli [11] came out at 8.
Regarding `CC(=O)OCC1=C(C(=O)O)N2C(=O)[C@@H](NC(=O)Cc3cccs3)[C@H]2SC1` [CEPHALOTHIN], the Stability in the data set on Escherichia coli [12] is 25 nmol/min; with Escherichia coli [13], 50 nmol/min; with Escherichia coli [14], 53 nmol/min; in the data set with Escherichia coli [15], 65 nmol/min; with Escherichia coli [16] it was 7 nmol/min; in the data set with Escherichia coli [17] it was 6 nmol/min.
In the case of `C[C@@H](O)[C@H]1C(=O)N2C(C(=O)O)=C(S[C@@H]3CN[C@H](C(=O)N(C)C)C3)[C@H](C)[C@H]12` [MEROPENEM], the MIC in data set [1] was above 32 µg/mL; against Escherichia coli [2], below 0.06 µg/mL; with Escherichia coli [4], 8 µg/mL (≈ 20.9 µM); against Escherichia coli [5] it was 1 µg/mL (≈ 2.61 µM).
With `CO/N=C(\C(=O)N[C@@H]1C(=O)N2C(C(=O)O)=C(COC(C)=O)CS[C@H]12)c1csc(N)n1` [CEFOTAXIME], the Stability in the data set with Escherichia coli [12] worked out at 487 nmol/min; in the data set with Escherichia coli [13], 368 nmol/min; with Escherichia coli [14] it was 172 nmol/min; in the data set with Escherichia coli [15] it was 1310 nmol/min; in the data set with Escherichia coli [16], 48 nmol/min; with Escherichia coli [17], 20 nmol/min. The MIC in data set [1] was above 64 µg/mL; against Escherichia coli [2], below 0.06 µg/mL; in the data set with Escherichia coli [3], 64 µg/mL (≈ 141 µM); against Escherichia coli [4], 64 µg/mL (≈ 141 µM); with Escherichia coli [5], 64 µg/mL (≈ 141 µM).
Take `CO/N=C(\C(=O)N[C@@H]1C(=O)N2C(C(=O)[O-])=C(C[N+]3(C)CCCC3)CS[C@H]12)c1csc(N)n1`: the MIC is 64 µg/mL (≈ 133 µM) in [1], below 0.06 µg/mL against Escherichia coli [2], 16 µg/mL (≈ 33.3 µM) in the data set on Escherichia coli [4] and 8 µg/mL (≈ 16.6 µM) in the data set on Escherichia coli [5].
On to `C[C@@H](O)[C@H]1C(=O)N2C(C(=O)O)=C(SCCN=CN)C[C@H]12` [IMIPENEM ANHYDROUS], for which the MIC was below 0.06 µg/mL with Escherichia coli [18]; 4 µg/mL in the data set with Escherichia coli [19]; 0.12 µg/mL with Escherichia coli [20]; above 64 µg/mL against Pseudomonas aeruginosa [7]; above 32 µg/mL in data set [1]; 0.12 µg/mL in the data set on Escherichia coli [21]. Moreover, the MIC in the data set on Escherichia coli [2] was 0.12 µg/mL (≈ 0.401 µM); in the data set on Escherichia coli [3], 4 µg/mL (≈ 13.4 µM); against Pseudomonas aeruginosa [10] it was above 64 µg/mL; with Escherichia coli [4], 16 µg/mL (≈ 53.4 µM); in the data set on Escherichia coli [5], 2 µg/mL (≈ 6.68 µM). Also, the Stability in the data set with Escherichia coli [13] is listed as 116 nmol/min; in the data set with Escherichia coli [14], 69 nmol/min; with Escherichia coli [15], 412 nmol/min.
Regarding `CCN1CCN(C(=O)N[C@@H](C(=O)N[C@@H]2C(=O)N3[C@@H]2SC(C)(C)[C@@H]3C(=O)O)c2ccccc2)C(=O)C1=O` [PIPERACILLIN], the MIC is 128 µg/mL in the data set with Escherichia coli [22]; 1 µg/mL with Escherichia coli [23]; above 64 µg/mL in data set [24]; above 256 µg/mL in the data set on Escherichia coli [25]; above 256 µg/mL with Escherichia coli [26]; 128 µg/mL in the data set on Pseudomonas aeruginosa [27]. The MIC in the data set with Pseudomonas aeruginosa [28] is above 256 µg/mL.
Consider `CO[C@@]1(NC(=O)Cc2cccs2)C(=O)N2C(C(=O)O)=C(COC(N)=O)CS[C@@H]21` [CEFOXITIN], for which the MIC in [1] is above 64 µg/mL; in the data set on Escherichia coli [2], 4 µg/mL (≈ 9.36 µM); against Escherichia coli [3], 16 µg/mL (≈ 37.4 µM); in the data set on Escherichia coli [4], 32 µg/mL (≈ 74.9 µM); in the data set with Escherichia coli [5] it was 8 µg/mL (≈ 18.7 µM). For the same compound, the Ratio worked out at 2 in the data set on Escherichia coli [29] and 4 with Escherichia coli [11].
